Consider 19 compounds from patent US10179777B2, “3-(1H-benzimidazol-2-yl)-1H-pyridin-2-one derivatives” (MERCK PATENT GMBH, priority 2015, dated 2019).

Test [1] concerns the target T1, ALK1 (GST-modified kinase domain ACVRL1 (139-503)) (Homo sapiens, UniProt P37023).
T1 construct: N-terminally GST-modified kinase domain ACVRL1 (139-503); GST (N)
T1 sequence (P37023 139-503): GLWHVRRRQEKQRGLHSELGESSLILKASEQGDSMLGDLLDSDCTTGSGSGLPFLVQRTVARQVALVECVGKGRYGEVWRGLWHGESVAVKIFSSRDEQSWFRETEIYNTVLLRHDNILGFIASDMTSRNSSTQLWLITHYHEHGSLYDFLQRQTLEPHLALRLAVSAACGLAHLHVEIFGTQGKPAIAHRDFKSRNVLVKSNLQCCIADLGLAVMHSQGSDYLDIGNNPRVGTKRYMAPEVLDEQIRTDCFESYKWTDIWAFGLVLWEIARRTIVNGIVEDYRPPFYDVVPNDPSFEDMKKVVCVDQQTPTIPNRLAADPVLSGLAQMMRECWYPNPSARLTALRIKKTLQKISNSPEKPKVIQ
The test is described as follows: ALK1 kinase inhibition assay (33P-ATP filter binding, Reaction Biology). In kind it is biochemical. Conditions: casein substrate, 100 μM ATP (Km ATP), 120 min ambient temperature. On the procedure: (§1) The protein sequences of the kinases targeted and accompanying information are described in publically available data base http://www.uniprot.org/uniprot/for ALK1 www.uniprot.org/uniprot/P37023, for ALK2 www.uniprot.org/uniprot/Q04771 and for ALK5 www.uniprot.org/uniprot/P36897. IC50 determination of the novel inhibitors described was performed at Reaction Biology Corp., Malvern, Pa., USA, with assay conditions open to public at www.reactionbiology.com/webapps/site/KinaseDetail.aspx?page=Kinases&id=1, and www.reactionbiology.com/webapps/site/Kinase Assay Protocol.aspx. In addition, they were specified previously in Anastassiadis et al. Nat. Biotechnol. 29(11): 1039-1045. doi:10.1038/nbt.2017.
A1) ALK1 Kinase Inhibition Assay
(§2) was performed with N-terminally GST-modified kinase domain ACVRL1 (139-503) and 20 mg/ml Casein as substrate in reaction buffer of 20 mM HEPES pH 7.5, 10 mM MgCl2, 1 mM EGTA, 0.02% Brij, 0.02 mg/ml BSA, 0.1 mM Na3VO4, 2 mM DTT, 1% DMSO. […] Reactions were carried out at ambient temperature for 120 min, followed by spotting of the reactions onto P81 ion exchange filter paper (Whatman Inc., Picataway, N.J., USA). Unbound phosphate was removed by extensive washing of filters in 0.75% phosphoric acid. After subtraction of background derived from control reactions without enzyme activity, kinase activity data was expressed as the percent remaining kinase activity in test samples compared to vehicle (DMSO) reactions. IC50 values and curve fits were obtained using Prism (GraphPad Software).

Test [2] concerns the target T2, ALK2 (GST-modified kinase domain ACVR1(145-509)) (Homo sapiens, UniProt Q04771).
T2 construct: N-terminally GST-modified kinase domain ACVR1(145-509); GST (N)
T2 sequence (Q04771 145-509): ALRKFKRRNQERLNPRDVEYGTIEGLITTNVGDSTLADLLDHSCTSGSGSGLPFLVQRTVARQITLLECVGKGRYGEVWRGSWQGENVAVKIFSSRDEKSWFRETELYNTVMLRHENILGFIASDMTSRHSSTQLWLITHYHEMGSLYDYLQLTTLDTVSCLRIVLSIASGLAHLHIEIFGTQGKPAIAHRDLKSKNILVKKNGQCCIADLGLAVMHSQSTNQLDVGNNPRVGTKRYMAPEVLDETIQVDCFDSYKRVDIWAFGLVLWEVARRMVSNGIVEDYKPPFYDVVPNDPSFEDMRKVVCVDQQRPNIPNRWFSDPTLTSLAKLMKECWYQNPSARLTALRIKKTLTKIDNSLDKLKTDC
The test is described as follows: ALK2 kinase inhibition assay (33P-ATP filter binding, Reaction Biology). In kind it is biochemical. Conditions: casein substrate, 20 μM ATP (Km ATP), 120 min ambient temperature. As to the method:
as §1
A2) ALK2 Kinase Inhibition Assay
as §2, with “performed similar to procedure A1” for “performed”, “domain ACVR1(145-509)” for “domain ACVRL1 (139-503)”, “and 1” for “and 20”

For test [3], the system named is ALK1-mediated SMAD1/5 phosphorylation in HUVEC cells. The test is described as follows: Cell-based immunofluorescence assay for ALK1-mediated SMAD1/5 phosphorylation in HUVEC cells. The note with it: Homo sapiens, 1.5 ng/ml BMP-9 with compound for 2 h, % nuclei with pSMAD1/5 signal, read-out: Smad 1/5 IC50. From the text: In vitro cell-based Immunofluorescence-Assay for identification of inhibitors of ALK1-mediated SMAD1/5 phosphorylation in HUVEC cells:
ALK1 is a type I cell-surface receptor for the TGF-β superfamily of ligands. In adults ALK1 is mainly expressed on activated endothelial cells, e.g. during wound healing or in tumor angiogenesis. BMP9 and BMP10 are high affinity ligands for ALK1.
BMP9 and BMP10 binding leads to the phosphorylation of so-called Smad1 at Ser463 and Ser465 in the carboxy-terminal motif SSXS, as well as Smad5 and Smad8 at their corresponding sites. These phosphorylated Smads dimerize with the coactivating Smad4 and translocate to the nucleus, where they stimulate transcription of target genes.
Primary endothelial cells (HUVEC: Human Umbilical Vein Endothelial Cells; supplier Promocell) are cultivated in the culture medium obtained from Promocell (with supplements corresponding to 5% FCS) for maximum 5 passages, seeded into black 384-well culture plates with clear bottom (3000 cells/well/30 μl), and incubated for 16-24 hours at 37° C., 5% CO2 and 90% rH.
The following day cells were serum-starved for 2-3 h in order to stop TGF-ß-mediated signalling derived from ligands present in FBS. 1.5 ng/ml BMP-9 was than added in parallel with test compounds for 2 h at 37° C., 5% CO2 in order to identify compounds which block functional activity of ALK1 leading to phosphorylation and nuclear translocation of SMAD1/5/8.
After fixation (15 min 4% Formaldehyd in PBS) and permeabilization (10 min 0.2% Triton X-100 in PBS) an indirect immunocytochemical staining is performed with a specific Phospho-Smad1/5 (Ser463/465) antibody (Cell Signaling #9516) and Alexa488-labelled secondary anti-rabbit-IgG-antibody. DNA staining with Propidium Iodide allowed parallel cell counting. Image acquisition and analysis was performed on an MDS ImageXpress Ultra confocal High Content Reader using the image analysis software MetaXpress. Final read-out were % nuclei with a pSMAD1/5 signal above a defined background.
The final DMSO concentration in the assay was 0.5%. DMSO-treated HUVEC cells served as neutral control (=0%) and cells treated with 10 μM of a reference inhibitor described in a patent served as inhibitor control (=−100%). Raw data were normalised to the neutral and inhibitory references. The assay was performed as dose response (10 compound dilutions, 1 nM-30 μM).

Each structure is given as a SMILES string.

Take `O=c1[nH]cc(-c2ccnc3ccccc23)cc1-c1nc2ccccc2[nH]1` [Compound A2, 3-(1H-Benzimidazol-2-yl)-5-quinolin-4-yl-1H-pyridin-2-one]: the IC50 in test [1] was 1.4 µM; in test [2], 0.63 µM.
In test [1], `O=c1[nH]cc(-c2ccncc2)cc1-c1nc2ccc(Cl)cc2[nH]1` [Compound A3, 5-(5-Chloro-1H-benzimidazol-2-yl)-1H-[3,4′]bipyridinyl-6-one] had an IC50 of 8.9 µM.
In the case of `Cc1ccc2nc(-c3cc(-c4ccncc4)c[nH]c3=O)[nH]c2c1` [Compound A4, 5-(5-Methyl-1H-benzimidazol-2-yl)-1H-[3,4′]bipyridinyl-6-one], the values for the IC50 in test [1] and in test [2] were 9.2 µM and 5.4 µM, respectively.
Turning to `Cc1cccc2[nH]c(-c3cc(-c4ccncc4)c[nH]c3=O)nc12` [Compound A5, 5-(4-Methyl-1H-benzimidazol-2-yl)-1H-[3,4′]bipyridinyl-6-one], the IC50 came out at 10 µM in test [1] and 5.7 µM in test [2].
Take `O=c1[nH]cc(-c2ccnc3ccccc23)cc1-c1nc2cc(N3CCOCC3)ccc2[nH]1` [Compound A9, 3-(6-Morpholin-4-yl-1H-benzimidazol-2-yl)-5-quinolin-4-yl-1H-pyridin-2-one]: in test [3], the IC50 was 5.7 µM.
In the case of `O=c1[nH]cc(-c2ccnc3ccccc23)cc1-c1nc2cc(Oc3ccncc3)ccc2[nH]1` [Compound A10, 3-[5-(Pyridin-4-yloxy)-1H-benzimidazol-2-yl]-5-quinolin-4-yl-1H-pyridin-2-one], the IC50 in test [1] turned out to be 0.95 µM; in test [2] it was 0.43 µM.
For the compound `O=c1[nH]cc(-c2cc(CO)ccc2Cl)cc1-c1nc2cc(N3CCOCC3)ccc2[nH]1` [Compound A11, 5-(2-Chloro-5-hydroxymethyl-phenyl)-3-(5-morpholin-4-yl-1H-benzimidazol-2-yl)-1H-pyridin-2-one], the IC50 in test [3] came out at 6.5 µM.
Regarding `O=c1[nH]cc(-c2ccnc3ccccc23)cc1-c1nc2cc(N3CCNCC3)ccc2[nH]1` [Compound A14, 3-(6-Piperazin-1-yl-1H-benzimidazol-2-yl)-5-quinolin-4-yl-1H-pyridin-2-one], the IC50 in test [3] turned out to be 5.7 µM.
In test [1], `O=c1[nH]cc(-c2c[nH]c3ccccc23)cc1-c1nc2cc(N3CCNCC3)ccc2[nH]1` [Compound A15, 5-(1H-Indol-3-yl)-3-(6-piperazin-1-yl-1H-benzimidazol-2-yl)-1H-pyridin-2-one] came in with an IC50 of 3.5 µM.
Take `O=c1[nH]cc(-c2ccnc3ccoc23)cc1-c1nc2cc(N3CCNCC3)ccc2[nH]1` [Compound A18, 5-Furo[3,2-b]pyridin-7-yl-3-(5-piperazin-1-yl-1H-benzimidazol-2-yl)-1H-pyridin-2-one]: the IC50 in test [3] was found to be 2 µM.
As for `COCc1cccc(-c2c[nH]c(=O)c(-c3nc4cc(N5CCNCC5)ccc4[nH]3)c2)c1` [Compound A19, 5-(3-Methoxymethyl-phenyl)-3-(5-piperazin-1-yl-1H-benzimidazol-2-yl)-1H-pyridin-2-one], the IC50 in test [3] was 11 µM.
In test [2], `CN1CCN(c2ccc3[nH]c(-c4cc(-c5ccncc5)c[nH]c4=O)nc3c2)CC1` [Compound A28, 5-[5-(4-Methyl-piperazin-1-yl)-1H-benzimidazol-2-yl]-1H-[3,4′]bipyridinyl-6-one] returned an IC50 of 0.099 µM.
Consider `CN1CCN(c2ccc3[nH]c(-c4cc(-c5cnn(C)c5)c[nH]c4=O)nc3c2)CC1` [Compound A30, 3-[5-(4-Methyl-piperazin-1-yl)-1H-benzimidazol-2-yl]-5-(1-methyl-1H-pyrazol-4-yl)-1H-pyridin-2-one], for which the IC50 was found to be 1.8 µM in test [1] and 0.71 µM in test [2].
As for `CN1CCN(c2ccc3[nH]c(-c4cc(-c5cccnc5)c[nH]c4=O)nc3c2)CC1` [Compound A31, 5-[5-(4-Methyl-piperazin-1-yl)-1H-benzimidazol-2-yl]-1H-[3,3′]bipyridinyl-6-one], the IC50 in test [1] turned out to be 5.5 µM; in test [2], 3.4 µM.
As for `O=c1[nH]cc(-c2ccnc3[nH]ccc23)cc1-c1nc2ccccc2[nH]1` [Compound A39, 3-(1H-Benzimidazol-2-yl)-5-(1H-pyrrolo[2,3-b]pyridin-4-yl)-1H-pyridin-2-one], the figures for the IC50 in test [1] and in test [2] were 0.19 µM and 0.12 µM, respectively.
Consider `NCc1ccc2[nH]c(-c3cc(-c4ccncc4)c[nH]c3=O)nc2c1` [Compound A54, 5-(5-Aminomethyl-1H-benzimidazol-2-yl)-1H-[3,4′]bipyridinyl-6-one], for which the IC50 in test [1] came to 2.6 µM; in test [2], 1.1 µM.
For the compound `CC(=O)NCc1ccc2[nH]c(-c3cc(-c4ccncc4)c[nH]c3=O)nc2c1` [Compound A55, N-[2-(6-Oxo-1,6-dihydro-[3,4′]bipyridinyl-5-yl)-1H-benzimidazol-5-ylmethyl]-acetamide], the IC50 in test [1] came out at 6.8 µM; in test [2], 3.1 µM.
For `CCN(CC)CCNC(=O)c1ccc2nc(-c3cc(-c4ccncc4)c[nH]c3=O)[nH]c2c1` [Compound A57, 2-(6-Oxo-1,6-dihydro-[3,4′]bipyridinyl-5-yl)-3H-benzimidazole-5-carboxylic acid (2-diethylamino-ethyl)-amide], in test [1], the IC50 came to 3.1 µM.
As for `CN1CCC(NC(=O)c2ccc3[nH]c(-c4cc(-c5ccncc5)c[nH]c4=O)nc3c2)CC1` [Compound A58, 2-(6-Oxo-1,6-dihydro-[3,4′]bipyridinyl-5-yl)-3H-benzimidazole-5-carboxylic acid (1-methyl-piperidin-4-yl)-amide], the IC50 in test [1] turned out to be 3.3 µM; in test [2], 3.1 µM.
